According to Sander's compilation of Henry's law constants (doi:10.1002/jps.2600670510):

Assay: Henry solubility constant Hcp at 298.15 K (mol/(m3 Pa))
Conditions: reference: Rytting et al. (1978)

Row | Henry solubility constant Hcp | Compound
1 | 0.52 | CCCCN [1-butanamine]
2 | 0.24 | CCCCCCCN [1-heptanamine]
3 | 0.32 | CCCCCCN [1-hexanamine]
4 | 0.19 | CCCCCCCCN [1-octanamine]
5 | 0.4 | CCCCCN [1-pentanamine]
6 | 0.9 | CCCCCO [1-pentanol]
7 | 0.98 | CCC(C)O (configuration not stated) [2-butanol]
8 | 0.8 | CC(C)CO [2-methyl-1-propanol]
9 | 4.8e-06 | CCCCCCC [heptane]
10 | 5.4e-06 | CCCCCC [hexane]
11 | 3.1e-06 | CCCCCCCC [octane]
12 | 7.8e-06 | CCCCC [pentane]
